The target of experiment [1] is T1, Estrogen receptor (Homo sapiens) (UniProt P03372).
T1 sequence (whole entry): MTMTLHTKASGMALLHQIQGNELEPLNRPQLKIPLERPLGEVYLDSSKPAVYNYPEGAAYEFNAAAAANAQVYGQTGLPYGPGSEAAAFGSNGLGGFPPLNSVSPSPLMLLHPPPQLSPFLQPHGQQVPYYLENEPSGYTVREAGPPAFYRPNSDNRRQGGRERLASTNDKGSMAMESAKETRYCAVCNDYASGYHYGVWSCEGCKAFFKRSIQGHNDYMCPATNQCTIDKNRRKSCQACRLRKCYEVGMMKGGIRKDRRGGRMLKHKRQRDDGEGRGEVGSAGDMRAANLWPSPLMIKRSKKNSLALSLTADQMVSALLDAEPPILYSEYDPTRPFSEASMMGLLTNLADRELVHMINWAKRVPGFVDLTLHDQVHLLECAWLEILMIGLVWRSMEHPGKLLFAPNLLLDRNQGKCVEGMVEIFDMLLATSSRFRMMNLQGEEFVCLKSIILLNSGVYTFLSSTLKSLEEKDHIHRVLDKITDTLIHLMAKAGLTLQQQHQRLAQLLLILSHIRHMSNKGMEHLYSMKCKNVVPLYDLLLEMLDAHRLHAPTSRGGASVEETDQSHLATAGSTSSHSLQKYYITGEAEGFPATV
Kind of experiment: Agonist activity at recombinant human GAL4-fused ERalpha expressed in HEk293 cells at 30 uM by luciferase reporter gene assay. The format is cell-based.

For experiment [2], the target named is T1, Estrogen receptor (Homo sapiens). In words: Antagonist activity at ERalpha (unknown origin) expressed in human MCF7 cells assessed as inhibition of E2-induced response at 10 uM by dual luciferase reporter gene assay. The format is cell-based. On the technique in general: A reporter such as luciferase makes a cellular process visible.
In experiment [3] the target is T2, Estrogen receptor (Homo sapiens, UniProt P03372).
T2 sequence (P03372 whole entry): T1 sequence (whole entry)
In words: biochemical.
Description: Displacement of Fluormone ES2 from full length recombinant human untagged ERalpha expressed in Sf insect cells by fluorescence polarization assay

Experiment [4] addresses T2, Estrogen receptor. Kind of experiment: Agonist activity at recombinant human GAL4-fused ERalpha expressed in HEk293 cells by luciferase reporter gene assay. It counts as cell-based.
The target of experiment [5] is T2, Estrogen receptor.
Description: Antagonist activity at ERalpha (unknown origin) expressed in human MCF7 cells assessed as inhibition of E2-induced response by dual luciferase reporter gene assay

The source made the active and inactive calls. The rule behind the calls is not given here. Where only a bound is given, the exact number is not on record here.

This is an account of results in ChEMBL document CHEMBL4219131, “Design and synthesis of estrogen receptor ligands with a 4-heterocycle-4-phenylheptane skeleton” (Bioorg Med Chem, 2018).

For orientation: inhibition means the change of the read-out against control, counted positive when it falls. One may read the IC50 as the midpoint of a concentration-inhibition curve. In general, EC50 refers to the concentration giving half of the maximal effect.

On to `CCCC(CCC)(c1ccc(O)c(C)c1)c1c[nH]c2cccc(OCc3ccccc3)c12`, for which the outcome in experiment [1] was inactive. Moreover, in experiment [2], the inhibition entry is “inactive”. Further, the half-maximal inhibitory concentration (IC50) at Estrogen receptor [3] was > 10000 nM.
For `CCCC(CCC)(c1ccc(O)c(C)c1)c1ccc(O)c(C)c1`, the result in experiment [1] was inactive.
As for `CCCC(CCC)(c1ccc(O)c(C)c1)c1ccc(C(=O)OCC)n1C`, the result in experiment [1] was inactive. Also, the inhibition in experiment [2] turned out to be 41%. This compound also yielded an IC50 against Estrogen receptor [3] of 1040 nM.
As for `CCCC(CCC)(c1ccc(O)c(C)c1)c1cccs1`, on Estrogen receptor [4], the EC50 was > 30000 nM. The inhibition entry in experiment [2] is “inactive”. This compound yielded an IC50 against Estrogen receptor [3] of 4680 nM.
Turning to `CCCC(CCC)(c1ccc(O)c(C)c1)c1c[nH]c2cc(OCc3ccccc3)ccc12`, in experiment [1], the result was inactive. Besides, the inhibition in experiment [2] is 44%. The compound also gave an IC50 against Estrogen receptor [3] of 613 nM.
`CCCC(CCC)(c1ccc(O)c(C)c1)c1ccc(C(=O)OCC)[nH]1`: in experiment [1], the result was inactive. The half-inhibitory concentration (IC50) against Estrogen receptor [5] is 450 nM; on Estrogen receptor [3], 195 nM.
As to `CCCC(CCC)(c1ccc(O)c(C)c1)c1cc(C)cs1`, the concentration giving a half-maximal response (EC50) on Estrogen receptor [4] was > 30000 nM. The inhibition entry in experiment [2] is “inactive”. In addition, on Estrogen receptor [3], half-maximal inhibition (IC50) required 1130 nM.
Regarding `CCCC(CCC)(c1ccc(O)c(C)c1)c1ccc(C(=O)O)[nH]1`, the result in experiment [1] was inactive. The inhibition result in experiment [2] is “inactive”. Besides, the IC50 at Estrogen receptor [3] is > 10000 nM.
Regarding `CCCC(CCC)(c1ccc(O)c(C)c1)c1ccc(C(=O)O)n1C`, the result in experiment [1] was inactive. Moreover, the inhibition result in experiment [2] is “inactive”. Moreover, on Estrogen receptor [3], the IC50 was > 10000 nM.
